Where two headings read alike, the source gives them in different places.
Legend:
[1] = system: carbapenem-resistant Escherichia coli clinical isolates (blaKPC); test: DDM (digital dispensing method) MIC testing of CRE isolates; type: cell-based; settings: Escherichia coli, read-out: DDM modal MICs
Method: (§1) Bacterial strains: The 10 de-identified CRE clinical isolates used in the study were collected at our institution under Institutional Review Board-approved protocols and were sequenced through the carbapenem-resistant Enterobacteriaceae genome initiative at the Broad Institute (Cambridge, MA). All contained a Klebsiella pneumoniae carbapenemase (blaKPC) gene and were colony-purified, minimally passaged, and stored at -80° C. prior to use in this study.
(§2) After incubation, bacterial growth was quantified by measurement of OD600 using an Epoch (BioTek, Winooski, VT) or Spark 10 M microplate reader (Tecan, Morrisville, NC). An OD600 reading of 0.08 or greater (approximately twice typical background readings in wells containing broth alone) was considered indicative of bacterial growth (as also appreciable by visual assessment).
(§3) Precision and accuracy. […] Modal DDM MICs were calculated by taking the mode of all DDM MIC measurements obtained for a given antibiotic-strain combination, inclusive of initial MIC titrations and single-antibiotic rows/columns in synergy arrays (Table 5).

[2] = system: carbapenem-resistant Klebsiella pneumoniae clinical isolates (blaKPC); test: as above; type: cell-based; settings: for MIC: Klebsiella pneumoniae, read-out: DDM modal MICs
Method: as §1, §2, §3

[3] = system: 4 bacterial screening strains (BIDMC 4, BIDMC 5, BIDMC 12A, and BIDMC 15); test: Checkerboard synergy testing screen (FICI-MIN); type: cell-based, Klebsiella pneumoniae; Escherichia coli; settings: range over strains; read-out: MICs of the strains
[4] = system: 14 Enterobacteriaceae strains presumptively expressing extended spectrum beta-lactamase enzymes; test: Inoculum effect by digitally dispensed checkerboard of bacteria and antibiotic; type: cell-based; settings: inkjet printing method, inoculum above/below CLSI-recommended
Excerpt: Inoculum effect experiments comprise a series of broth microdilution experiments in which the cell density of the bacterial inoculum is varied (often 10-fold) across multiple identical doubling dilutions of antibiotics. The MICs are then interpreted at each inoculum concentration.
There is currently no practical way to test for an inoculum effect within the workflow of a clinical laboratory, as such testing would require a highly laborious manual process of testing different inoculum levels with several potential antimicrobials. […] By varying the droplet size during digital printing of a bacterial suspension as described in the preceding section, a desired inoculum of bacteria can be added to each testing well. More specifically, doubling dilutions of bacterial inocula can be performed if desired, thereby establishing the relationship between inoculum and MIC through an inoculum dose-response curve.
We investigated the inoculum effect for cefepime (a fourth generation cephalosporin) on 14 Enterobacteriaceae strains presumptively expressing extended spectrum beta-lactamase enzymes based on third generation cephalosporin resistance. Bacteria and antibiotics were both dispensed as orthogonal, combinatorial two-fold dilution series using our digital dispensing method to create a checkerboard array. […]

[5] = system: E. coli ATCC 25922; test: Microscopy-based AST (MAST): cell morphology at the MIC; settings: MAST, 2-hour incubation
Method: Briefly, antibiotics are added to solidified microwell surfaces which are subsequently inoculated with 200 nL of a standardized bacterial suspension. Both antibiotic and bacterial cell dispensing are performed using the HP D300 system. Following incubation at 35±2° C., plates are imaged on a Zeiss Cell Observer microscope operating in brightfield mode with a 40X long working distance objective. The microscope is equipped with an automated stage. […] The z-position of the poloxamer surface in the first well is set manually after which the software directs the stage to each subsequent well, collecting a z-series (20 slices at 2 µM per slice with the center of the z-series defined by the microscope’s autofocus feature) with no further operator intervention. Z-series are collapsed using the Extended Depth of Focus feature in the Zeiss Zen Blue software and saved as individual images.
Microscopy-based AST (MAST). […] Two-hundred nL of bacteria in NaCl-P20 suspended at a density of 0.1 McFarland were then delivered to the center of each well by digital dispensing. Immediately after inoculation, plates were incubated at 35±2° C. for 2 hours, and held at room temperature for 2 hours during transport and imaging.
Plates were imaged with a Zeiss Cell Observer microscope with settings described in the “quantification of bacterial dispensing” section. […]

[6] = system: E. cloacae ATCC 13047; test: MIC testing by broth microdilution and D300 digital dispensing (precision study); type: cell-based, Enterobacter cloacae; settings: EUCAST criteria
[7] = system: eighty de-identified Enterobacteriaceae clinical isolates; test: organism not typed; type: cell-based; settings: eighty clinical isolates; reference microdilution; CLSI criteria, EUCAST for colistin
Method: K. pneumonia BIDMC12A is a previously described, carbapenem resistant clinical isolate (14) expressing a KPC-3 carbapenemase. The eighty de-identified Enterobacteriaceae clinical isolates (Table 1) used for verification studies were collected at our institution under IRB-approved protocols. All strains were minimally passaged and stored at -80° C. prior to use in this study.
Verification study: Digital dispensing and reference method testing were performed in parallel using the same inoculum preparation. Microdilution reference panels were pre-prepared and stored at -80° C. until use (less than 2 weeks). D300 test method panels were prepared fresh each day of use.
Accuracy was evaluated using established guidelines (16, 17). The MIC determined by the digital dispensing method was compared with the MIC determined by the broth microdilution reference method. Essential agreement, overall essential agreement, and categorical agreement were evaluated as described in the precision study.

[8] = system: KPC-producing CRE K. pneumoniae strains; test: Checkerboard synergy, spectrum of activity evaluation; type: cell-based, Klebsiella pneumoniae; settings: strain BIDMC 18A
Method: Spectrum of activity evaluation. […] Each selected combination was tested in duplicate on separate days against the 10 clinical KPC-producing CRE strains (5 K. pneumoniae and 5 E. coli) listed in Table 5, including the original 4 used in the synergy testing screen.

[9] = system: carbapenem-resistant Enterobacteriaceae; settings: cited from earlier work
[10] = system: P. mirabilis ATCC 702; test: MIC testing by broth microdilution and D300 digital dispensing (precision study); settings: precision study, EUCAST criteria
Method: Broth microdilution testing: Broth microdilution was performed using the colony suspension method according to CLSI guidelines (13). Colistin testing was consistent with the joint CLSI-EUCAST (European Committee on Antimicrobial Susceptibility Testing) Polymyxin Breakpoints Working Group guidelines (15). Serial two-fold dilutions of antimicrobials at double concentration were made in 96-well plates (Evergreen Scientific, Los Angeles, CA) using cation adjusted Mueller-Hinton broth (BD Diagnostics, Franklin Lakes, NJ) in a 50 µl volume. […] MIC was defined as the lowest concentration of antimicrobial resulting in complete inhibition of growth as determined visually.
Bacterial suspensions were prepared as for broth microdilution and adjusted directly to the final inoculum concentration of 5 × 10^5 CFU ml^-1 in a 50 µl total assay volume. […] Cell growth was quantified by measurement of optical density at 600 nm (OD600) with an Epoch microplate reader (BioTek, Winooski, VT). A custom python script was used to classify wells with OD600 ≧ 0.08 (approximately two-fold above typical background readings) as having bacterial growth. […]
Precision analysis: A precision analysis was conducted according to established guidelines (16, 17). […] The modal MIC for both methods was determined using MIC values for on-scale measurements. Log2 difference of each measurement from the mode was recorded.

MIC ([2]; BIDMC 18A, KPN, KPC type 2)	MIC [3]	Molecule	MIC ([1]; BIDMC 6, ECO, KPC type 2)	MIC ([1]; BIDMC 9, ECO, KPC type 2)	MIC ([1]; BIDMC 15, ECO, KPC type 2)	MIC ([1]; BIDMC 17A, ECO, KPC type 2)	MIC ([1]; BIDMC 20A, ECO, KPC type 3)	MIC ([2]; BIDMC 4, KPN, KPC type 3)	MIC ([2]; BIDMC 5, KPN, KPC type 3)	MIC ([2]; BIDMC 10, KPN, KPC type 3)	MIC ([2]; BIDMC 12A, KPN, KPC type 3)	inoculum effect [4]	cell morphology at the MIC [5]	categorical susceptibility result [6]	Non-susceptible strains (%) [7]	Non-susceptible strains n [7]	DDM modal MICs ([2]; BIDMC 5, KPN, KPC type 3)	MIC [8]	share of carbapenem-resistant Enterobacteriaceae against which the drug is effective [9]	categorical susceptibility result [10]
64 µg/mL	8 to 64 µg/mL	C[C@@H](O)[C@H]1C(=O)N2C(C(=O)O)=C(S[C@@H]3CN[C@H](C(=O)Nc4cccc(C(=O)O)c4)C3)[C@H](C)[C@H]12 [ETP, ertapenem]	8 µg/mL	8 µg/mL	32 µg/mL	8 µg/mL	4 µg/mL	32 µg/mL	16 µg/mL	16 µg/mL	32 µg/mL									
		CO/N=C(\C(=O)N[C@@H]1C(=O)N2C(C(=O)[O-])=C(C[N+]3(C)CCCC3)CS[C@H]12)c1csc(N)n1 [FEP, cefepime]	8 µg/mL	32 µg/mL	4 µg/mL	4 µg/mL	8 µg/mL	64 µg/mL	16 µg/mL	16 µg/mL	16 µg/mL	pronounced	filamented bacteria with a pronounced central bulge							
		Colistin [Colistin (CL)]												resistance	21.5%	17	0.5 mg/L	> 128 mg/L	> 85%	resistance

— patent publication US20230304064A1, “AUTOMATED, DIGITAL DISPENSING PLATFORM FOR MICRODILUTION ANTIMICROBIAL SUSCEPTIBILITY TESTING” (priority 2016, published 2023)
